From patent US20100075907A1, “NEUROMEDIN U RECEPTOR AGONISTS AND USES THEREOF” (priority 2006, published 2010)
Starred links: 1 amine or outer side, 2 acyl side, 3 side chain; linkers in the order of their positions; H or OH if unused. Residues, ends and D or L forms follow the SMILES beside them. *: point of attachment. X2 = CCN1C(=O)CC(SC[C@H](NC(C)=O)C(=O)NCCCOCCOCCOCCCN*)C1=O; Suc = O=C(CCC(=O)[*:2])[*:1]

What was measured:
Assay type in all cases: cell-based
hNMUR1 = biological target: T1, hNMUR1 (Homo sapiens, UniProt Q9HB89); assay: FLIPR calcium mobilization assay, human NMUR1; design: expressed in transfected cells; host or cells: FLP-In CHO or HEK-293 FLP-In cells (pcDNA5); HEK-293/aeq17 lines (pIRES-puro) were also made; conditions: maximum response at 1 μM compared to hNMU-25 response at same concentration; human NMUR1
T1 sequence (Q9HB89 1-426): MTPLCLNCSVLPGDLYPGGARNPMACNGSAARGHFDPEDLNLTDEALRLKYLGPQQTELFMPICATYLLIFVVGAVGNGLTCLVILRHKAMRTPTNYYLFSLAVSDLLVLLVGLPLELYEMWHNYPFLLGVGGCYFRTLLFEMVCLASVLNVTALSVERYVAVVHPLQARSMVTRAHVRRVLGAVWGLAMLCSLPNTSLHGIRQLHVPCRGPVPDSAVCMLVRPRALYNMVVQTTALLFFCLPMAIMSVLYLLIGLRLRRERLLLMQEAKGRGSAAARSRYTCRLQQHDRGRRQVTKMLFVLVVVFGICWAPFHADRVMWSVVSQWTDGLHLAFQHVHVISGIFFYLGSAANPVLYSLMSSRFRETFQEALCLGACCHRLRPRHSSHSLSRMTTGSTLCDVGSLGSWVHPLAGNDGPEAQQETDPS

mouse NMUR1-ATG = biological target: T2, mouse NMUR1-ATG (Mus musculus, UniProt O55040); assay: FLIPR calcium mobilization assay, mouse NMUR1-ATG; design: expressed in transfected cells; host or cells: FLP-In CHO or HEK-293 FLP-In cells (pcDNA5); conditions: maximum response at 1 μM compared to hNMU-25; mouse NMUR1-ATG
T2 sequence (O55040 1-428): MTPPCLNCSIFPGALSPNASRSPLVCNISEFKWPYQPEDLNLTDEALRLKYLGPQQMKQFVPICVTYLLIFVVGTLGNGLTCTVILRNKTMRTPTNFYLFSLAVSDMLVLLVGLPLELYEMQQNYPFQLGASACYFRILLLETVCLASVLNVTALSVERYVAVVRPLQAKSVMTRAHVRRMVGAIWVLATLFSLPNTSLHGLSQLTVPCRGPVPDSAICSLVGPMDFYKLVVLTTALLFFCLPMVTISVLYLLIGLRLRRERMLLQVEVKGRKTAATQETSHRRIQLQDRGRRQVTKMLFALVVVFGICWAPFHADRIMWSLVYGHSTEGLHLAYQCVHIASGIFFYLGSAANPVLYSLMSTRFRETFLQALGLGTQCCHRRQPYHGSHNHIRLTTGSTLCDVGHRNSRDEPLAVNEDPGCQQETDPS
Text: (§1) Human, mouse or rat cDNAs encoding NMUR1 or NMUR2 (as described in Howard et al. Nature 406: 70-74 (2000) were subcloned in pcDNA5 (Invitrogen) and transfected into FLP-In CHO cells and HEK-293 FLP-In cells purchased from Invitrogen (Carlsbad, Calif.) using lipofectamine (Invitrogen). The Flp-In system allows integration and expression of a particular gene of interest at a specific genomic location utilizing the Flp recombinase from yeast. The transfected cells were selected by growth in medium containing 200 μg/mL hygromycin (Invitrogen). Populations were frozen at early passage numbers, and these stocks were used for further studies. Stable clones that expressed the mRNAs were identified functionally by FLIPR as well as by RT-PCR. […] Two different rodent NMUR1 cell lines were thus generated: one with the codon as predicted from the genomic databases and another cell line with an engineered methionine (ATG) as the start codon. Additionally, stable cell lines expressing the human receptors were generated in HEK-293/aeq17 cells which stably express the aequorin gene under the CMV promoter. The human NMUR2 cDNA was cloned into pcDNA3.1 and human NMUR1 was subcloned into pIRES-puro (Clontech, Mountain View, Calif.), after transfection cells were selected in media containing G418 and either hygromycin (NMUR2) or puromycin (NMUR1).
(§2) The NMU receptors signal primarily through Gαq/11 proteins; therefore calcium mobilization assays can be utilized for functional activity.
(§3) Stable cell lines expressing human and or rodent NMUR1 or human NMUR2 receptors were plated at a density of 12,000 cells per well overnight on poly-lysine coated 384-well black-walled plates. The following day, the media was removed from the plates and the cells were subsequently loaded with Fluo-3 (Molecular Probes), a calcium sensitive dye, diluted in FLIPR buffer (1× Hank's buffered saline containing 20 mM HEPES, 0.1% BSA, 2.5 mM probenecid (Sigma) and 1.6 mM TR40). All reagents are from Invitrogen unless otherwise noted. Peptide stocks were resuspended in DMSO at a stock concentration of 2 mM and diluted in FLIPR buffer on the day of the experiment to a 4 μM working stock solution.
(§4) After a 90 minute incubation at room-temperature, cell plates were loaded onto a FLIPR (Molecular Devices) to monitor cellular fluorescence (excitation=488 nm; emission=540 nm) before and after compound/peptide addition. Eight to twelve point dose responses were tested on NMUR-expressing cell lines using FLIPR with 1 μM peptide as the highest dose. The response after peptide addition was taken as the maximum fluorescence units minus the fluorescence immediately prior to stimulation for each well. EC50 values were calculated using GraphPad Prism (San Diego, Calif.) software.
(§5) In vitro responses of Neuromedin U receptor agonists (NMU1 to NMU25) in the FLIPR assay for human (Table 3), mouse (Table 4) and rat (Table 5) NMUR1 and NMUR2. EC50s are reported in nM values. Percent activity refers to the maximum response at 1 μM compared to the hNMU-25 response at the same concentration. NT=not tested.

rat NMUR1-ATG = biological target: T3, rat NMUR1-ATG (Rattus norvegicus, UniProt Q9JJI5); assay: FLIPR calcium mobilization assay, rat NMUR1-ATG; design: expressed in transfected cells; host or cells: FLP-In CHO or HEK-293 FLP-In cells (pcDNA5); conditions: maximum response at 1 μM compared to hNMU-25; rat NMUR1-ATG
T3 sequence (Q9JJI5 1-425): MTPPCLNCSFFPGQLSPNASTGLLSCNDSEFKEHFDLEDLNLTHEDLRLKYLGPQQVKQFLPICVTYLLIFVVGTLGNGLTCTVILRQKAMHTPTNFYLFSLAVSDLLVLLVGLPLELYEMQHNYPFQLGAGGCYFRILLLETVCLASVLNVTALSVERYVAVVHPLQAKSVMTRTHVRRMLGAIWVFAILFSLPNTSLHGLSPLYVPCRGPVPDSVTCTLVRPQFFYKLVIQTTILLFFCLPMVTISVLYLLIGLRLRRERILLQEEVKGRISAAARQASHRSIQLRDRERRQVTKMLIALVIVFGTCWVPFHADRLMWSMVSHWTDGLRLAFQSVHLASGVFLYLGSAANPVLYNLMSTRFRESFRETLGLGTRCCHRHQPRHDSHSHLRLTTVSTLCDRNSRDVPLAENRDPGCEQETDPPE
Text: as §1, §2, §3, §4, §5

CCN1C(=O)CC(SC[C@H](NC(C)=O)C(=O)NCCCOCCOCCOCCCNC(=O)CCC(=O)N[C@@H](Cc2ccccc2)C(=O)N[C@@H](CC(C)C)C(=O)N[C@@H](Cc2ccccc2)C(=O)N[C@@H](CCCNC(=N)N)C(=O)N2CCC[C@H]2C(=O)N[C@@H](CCCNC(=N)N)C(=O)N[C@@H](CC(N)=O)C(N)=O)C1=O (stereo partly drawn) [NMU15, Ac-C1-Ttds-FLFRPRN-CONH2] ({X2-Suc}-FLFRPRN-NH2)
% Activity (hNMUR1): 91.5%
% Activity (mouse NMUR1-ATG): 100%
% Activity (rat NMUR1-ATG): 100%
